Data set [1] has as its target T1, MRP2 (Homo sapiens, UniProt Q92887).
T1 construct: made in house; host or cells: Spodoptera frugiperda Sf9 cells, crude membrane vesicles
Also noted: method as in previous studies. Conditions: previously characterized inhibitors; ref previous studies; read-out: IC50 (95% CI), MRP2; cited from earlier work.

Data set [2] has as its target T2, OATP2B1 (Homo sapiens, UniProt O94956).
T2 construct: expressed in transfected cells; host or cells: HEK293 cells (ATCC) transduced with recombinant OATP2B1 baculovirus
T2 sequence (O94956 1-709): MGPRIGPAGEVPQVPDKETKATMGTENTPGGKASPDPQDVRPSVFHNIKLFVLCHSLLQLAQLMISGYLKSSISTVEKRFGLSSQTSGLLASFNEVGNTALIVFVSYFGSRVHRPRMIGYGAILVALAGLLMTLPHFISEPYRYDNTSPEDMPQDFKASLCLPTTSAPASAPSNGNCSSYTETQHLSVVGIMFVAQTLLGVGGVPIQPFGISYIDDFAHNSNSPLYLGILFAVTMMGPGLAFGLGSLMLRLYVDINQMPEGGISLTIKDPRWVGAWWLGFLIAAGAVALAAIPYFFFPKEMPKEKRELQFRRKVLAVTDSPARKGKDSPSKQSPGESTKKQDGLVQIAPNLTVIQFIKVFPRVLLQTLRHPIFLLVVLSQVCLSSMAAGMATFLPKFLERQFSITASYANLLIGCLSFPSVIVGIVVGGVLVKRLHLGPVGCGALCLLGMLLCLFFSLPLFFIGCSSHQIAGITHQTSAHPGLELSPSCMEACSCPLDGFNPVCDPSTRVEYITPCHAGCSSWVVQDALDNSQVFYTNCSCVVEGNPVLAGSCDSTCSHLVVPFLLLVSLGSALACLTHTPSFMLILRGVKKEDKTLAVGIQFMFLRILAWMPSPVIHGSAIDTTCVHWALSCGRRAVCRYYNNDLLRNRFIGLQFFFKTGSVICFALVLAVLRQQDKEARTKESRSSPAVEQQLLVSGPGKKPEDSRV
Conditions: cited from earlier work; for IC50 / Ki: previously characterized inhibitors, ref previous studies; for Ki: read-out: K i, OATP2B1.

Data set [3] relates to OATP2B1. Also on record: method as in Zou et al. Conditions: 25 mg/kg; P-gp-deficient mice; ref Zou et al.; cited from earlier work.
Another data set relates to Caco-2 cells. The experiment in a line: in vitro. The note with it: for effect on sulfasalazine permeability (P app): Caco-2. As for the experimental part:
(§1) Caco-2 cells were cultured on 12-well Transwell polycarbonate membrane inserts with a 0.4 μm pore size (Corning Incorporated, Kennebunk, ME) at 37 °C and 5% CO2 for 21–24 days prior to the experiment as described in Hubatsch et al. The culture medium (DMEM, 10% FBS, 1% MEM nonessential amino acids, 100 U/mL penicillin–streptomycin) was changed every second day. Transepithelial electrical resistance (TEER) was measured before and after the permeability assay with a Millicell-ERS electrode (Millipore, Bedford, MA) attached to an epithelial volt ohm meter (EVOM, World Precision Instruments, Sarasota, FL). The permeability assay was performed according to a previously published protocol. […] Sulfasalazine is a substrate of BCRP and OATP2B1. , The DMSO concentration was 0.45–1.5%. Before the experiment, inserts were washed and preincubated in the transport buffer for 20 min shaking at 37 °C. Sulfasalazine and LY permeability was measured in the apical to basolateral direction at five time points (20, 40, 60, 90, and 120 min) and, additionally, in the basolateral to apical direction to calculate the efflux ratio. […] […] LY (250 μM) was added on the donor side of all inserts to measure the integrity of the cell monolayer. Before analysis, samples were centrifuged at 2755g for 30 min, and donor solution and mass balance samples were diluted 1:100. LY fluorescence was measured with a Varioskan LUX microplate reader (Thermo Fisher Scientific) at 430 nm excitation and 538 nm emission. Sulfasalazine was analyzed with ultra-performance liquid chromatography (UPLC) using a Syncronis C18 column (1.7 μm particle size, 50 × 2.1 mm + 0.2 μm Waters online filter) (Thermo Fisher Scientific) coupled with Waters Acquity UPLC interfaced with a PDA detector both controlled by the Waters Empower software version 3. The UPLC was operated in gradient mode at 354 nm. Solvents were 0.015 M phosphate buffer pH 2 (A), acetonitrile (B), 1:1 acetonitrile/methanol (strong needle wash), and 20% acetonitrile (weak needle wash). Column temperature was 30 °C, injection volume was 10 μL, retention time was 1.46 min, and flow rate was 0.5 mL/min. The gradient was 25% B → 70% B (0–3 min), 70% B → 25% B (3.00–3.01 min), and 25% B (3.01–4 min). The data were collected for the first 180 s of each UPLC run.
(§2) In the Caco-2 permeability assay, the apparent permeability (P app) of sulfasalazine was calculated using the following equation: Papp=(dQ/dt)(1/A×C0) where dQ/dt is the rate of permeation across the cells (nmol/min), A is the surface area of the filter (1.12 cm^2), and C 0 is the initial concentration in the donor chamber (μM). The efflux ratio of sulfasalazine was calculated by dividing the P app in the basolateral to the apical direction by the P app in the apical to basolateral direction. The TEER for each cell insert was calculated before and after the experiment by multiplying the mean resistance of three measurements by the surface area of the filter (1.12 cm^2). Mass balance was calculated by dividing the […]. All experiments were done in triplicate wells, and the IC50 and Caco-2 permeability assays were repeated three times.

Data set [4] deals with T3, BCRP (Homo sapiens, UniProt Q9UNQ0).
T3 sequence (Q9UNQ0 1-655): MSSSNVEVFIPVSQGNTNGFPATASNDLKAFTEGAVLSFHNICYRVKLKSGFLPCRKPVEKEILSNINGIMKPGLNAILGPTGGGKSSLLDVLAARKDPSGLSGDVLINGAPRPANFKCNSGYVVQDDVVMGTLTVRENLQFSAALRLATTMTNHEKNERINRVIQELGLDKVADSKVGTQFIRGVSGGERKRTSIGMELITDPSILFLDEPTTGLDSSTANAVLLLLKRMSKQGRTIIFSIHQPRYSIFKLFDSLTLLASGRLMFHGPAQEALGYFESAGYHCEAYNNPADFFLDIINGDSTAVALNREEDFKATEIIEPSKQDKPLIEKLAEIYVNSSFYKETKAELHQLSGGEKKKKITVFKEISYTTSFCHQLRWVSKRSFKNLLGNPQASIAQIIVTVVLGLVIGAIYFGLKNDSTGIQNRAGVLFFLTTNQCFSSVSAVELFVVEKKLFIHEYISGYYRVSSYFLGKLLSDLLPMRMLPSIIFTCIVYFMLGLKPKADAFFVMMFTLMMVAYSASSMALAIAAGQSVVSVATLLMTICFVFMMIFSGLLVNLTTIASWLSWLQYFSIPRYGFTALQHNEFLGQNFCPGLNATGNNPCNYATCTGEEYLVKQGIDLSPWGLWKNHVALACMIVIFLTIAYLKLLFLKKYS
Conditions: cited from earlier work; for IC50: read-out: IC50 (95% CI), BCRP, previously characterized inhibitors, ref previous studies.

Data set [5] addresses T4, P-gp (Homo sapiens, UniProt P08183). Also noted: made in house; host or cells: Spodoptera frugiperda Sf9 cells, crude membrane vesicles. The note with it: ref Kulkarni et al.; cited from earlier work.
Data set [6] addresses T4, P-gp. The data set can be described thus: Vesicular transport assay, P-gp (N-methyl-quinidine substrate). The note with it: food additive 50 μM; N-methyl-quinidine 2 μM; n = 1.
Protocol: (§3) Transport inhibition by 22 food additives was tested with Spodoptera frugiperda (Sf9) derived crude membrane vesicles expressing BCRP, MRP2, or P-gp produced in-house. […] Vesicles (50 μg total protein/well) were diluted in an assay buffer (40 mM MOPS–Tris pH 7.0, 60 mM KCl, and 6 mM MgCl2) with the substrate, and food additives (final concentration of 50 μM) in DMSO were added to the mixture. After preincubation, either the assay buffer or Mg-ATP solution (final concentration 4 mM) was added to the plate to start the reaction. The plate was incubated at 37 °C, and the reaction was stopped with an ice-cold washing mixture (40 mM MOPS-Tris pH 7.0 and 70 mM KCl). Samples were moved to a MultiScreenHTS-FB Plate Glass fiber 1.0 μm/0.65 μm Durapore filter plate (Millipore, USA), and the wells were washed five times with the ice-cold washing mixture. For BCRP and MRP2, the fluorescent substrate was eluted from the filters with 100 μL 0.1 M NaOH. For LY samples, an equal volume of 0.1 M HCl was added to neutralize the samples before fluorescence measurement. The amount of the substrate accumulated into the vesicles was measured by fluorescent detection using a Varioskan LUX microplate reader (Thermo Fisher Scientific, Finland) (Table ). The accumulation into the P-gp vesicles was measured with high-performance liquid chromatography (HPLC) (Agilent 110 series, Agilent Technologies, USA) after lysis and elution of the vesicle contents with 100 μL 3:1 methanol/water + 0.1% formic acid. The column used was a Poroshell 120 EC-C18 with a size of 4.6 × 100 mm and 2.7 μm particle size. Eluent A was 0.1% formic acid, and eluent B was acetonitrile. The flow rate of eluent was 1 mL/min, and the injection volume of samples was 10 μL. […] The retention time for NMQ was around 2.5 min.
(§4) For the efflux transporters, the relative transport was calculated as relativetransport(%ofcontrol)=transportinh,ATP−transportinh,noATP/transportDMSO,ATP−transportDMSO,noATP×100% where transportinh,ATP and transportinh,no ATP are the transport rates in the presence of food additives with or without ATP, respectively, and transportDMSO,ATP and transportDMSO,no ATP are the corresponding transport rates in the presence of the vehicle (DMSO) with or without ATP.
(§5) The half-maximal inhibitory concentrations (IC50) were calculated with GraphPad Prism version 9.0.2 (GraphPad Software, San Diego, CA) using nonlinear regression that fits the data to a four-parameter dose–response curve: relativetransport=minimum+maximum−minimum/1+([I]/IC50)^h where minimum and maximum describe the plateaus of minimal and maximal relative transport (%), [I] is the concentration of inhibitor, and h is the Hill slope, which describes the steepness of the slope.
Data set [7] addresses T1, MRP2. The experiment in a line: Vesicular transport assay, MRP2 (CDCF substrate). The format is biochemical.
Protocol: Transport inhibition by 22 food additives was tested with Spodoptera frugiperda (Sf9) derived crude membrane vesicles expressing BCRP, MRP2, or P-gp produced in-house. […] Vesicles (50 μg total protein/well) were diluted in an assay buffer (40 mM MOPS–Tris pH 7.0, 60 mM KCl, and 6 mM MgCl2) with the substrate, and food additives (final concentration of 50 μM) in DMSO were added to the mixture. After preincubation, either the assay buffer or Mg-ATP solution (final concentration 4 mM) was added to the plate to start the reaction. The plate was incubated at 37 °C, and the reaction was stopped with an ice-cold washing mixture (40 mM MOPS-Tris pH 7.0 and 70 mM KCl). Samples were moved to a MultiScreenHTS-FB Plate Glass fiber 1.0 μm/0.65 μm Durapore filter plate (Millipore, USA), and the wells were washed five times with the ice-cold washing mixture. For BCRP and MRP2, the fluorescent substrate was eluted from the filters with 100 μL 0.1 M NaOH. […] The amount of the substrate accumulated into the vesicles was measured by fluorescent detection using a Varioskan LUX microplate reader (Thermo Fisher Scientific, Finland) (Table ).
as §4, §5
Data set [8] has as its target T2, OATP2B1. The experiment in a line: HEK293 uptake assay, OATP2B1 (5-carboxyfluorescein substrate). Conditions: food additive 50 μM. The format is cell-based. The procedure: The inhibition of OATP2B1 was studied using a HEK293 cell-based uptake assay. HEK293 cells were cultured in DMEM supplemented with 10% FBS at 37 °C and 5% CO2 and seeded at 22,500 cells/well on 96-well plates coated with 0.1 mg/mL poly-D-lysine. After 24 h, the medium was replaced with a transduction mix (DMEM with 10% FBS, 5 mM sodium butyrate, and recombinant OATP2B1 or enhanced yellow fluorescent protein [eYFP, negative control] baculoviruses). The baculoviruses were produced as previously described. The uptake assay was performed after approximately 48 h. […] Test solutions also contained the substrate. Cells were washed with warm transport buffer and preincubated at 37 °C. Preincubation solutions were replaced with test solutions and incubated at 37 °C with shaking at 250 rpm. Transport was terminated by aspirating the test solution and washing the wells with an ice-cold transport buffer (150 μL) three times. Wells were left to dry, and cells were lysed with 0.1 M NaOH. […] Total protein concentration was measured from six random wells with a Pierce Coomassie (Bradford) Assay kit (Thermo Fisher Scientific) to ensure a similar protein concentration in the OATP2B1 and eYFP wells.

A short description of the next data set: in vitro. Conditions: human, Caco-2, pH 7.4. The procedure: as §1, §2
Data set [9] concerns the target T3, BCRP. The data set can be described thus: Vesicular transport assay, BCRP (Lucifer yellow substrate). Type of data set: biochemical. Also on record: made in house; host or cells: Spodoptera frugiperda Sf9 cells, crude membrane vesicles. Conditions: Sf9-derived crude membrane vesicles expressing BCRP, pH 7, probe Lucifer yellow 50 μM, food additive 50 μM, n = 1, read-out: inhibition of BCRP substrate accumulation.
Protocol: as §3, §4, §5

Where [10] appears, read: pH 5.5, read-out: IC50, OATP2B1, pH 5.5.
Setting [11] is: pH 7.4, read-out: IC50, OATP2B1, pH 7.4.

SMILES strings stand for the structures. Entries after “also recorded” stand apart in the source; their conditions may differ. Where two headings read alike, the source gives them in different places.

T4 sequence (P08183 whole entry): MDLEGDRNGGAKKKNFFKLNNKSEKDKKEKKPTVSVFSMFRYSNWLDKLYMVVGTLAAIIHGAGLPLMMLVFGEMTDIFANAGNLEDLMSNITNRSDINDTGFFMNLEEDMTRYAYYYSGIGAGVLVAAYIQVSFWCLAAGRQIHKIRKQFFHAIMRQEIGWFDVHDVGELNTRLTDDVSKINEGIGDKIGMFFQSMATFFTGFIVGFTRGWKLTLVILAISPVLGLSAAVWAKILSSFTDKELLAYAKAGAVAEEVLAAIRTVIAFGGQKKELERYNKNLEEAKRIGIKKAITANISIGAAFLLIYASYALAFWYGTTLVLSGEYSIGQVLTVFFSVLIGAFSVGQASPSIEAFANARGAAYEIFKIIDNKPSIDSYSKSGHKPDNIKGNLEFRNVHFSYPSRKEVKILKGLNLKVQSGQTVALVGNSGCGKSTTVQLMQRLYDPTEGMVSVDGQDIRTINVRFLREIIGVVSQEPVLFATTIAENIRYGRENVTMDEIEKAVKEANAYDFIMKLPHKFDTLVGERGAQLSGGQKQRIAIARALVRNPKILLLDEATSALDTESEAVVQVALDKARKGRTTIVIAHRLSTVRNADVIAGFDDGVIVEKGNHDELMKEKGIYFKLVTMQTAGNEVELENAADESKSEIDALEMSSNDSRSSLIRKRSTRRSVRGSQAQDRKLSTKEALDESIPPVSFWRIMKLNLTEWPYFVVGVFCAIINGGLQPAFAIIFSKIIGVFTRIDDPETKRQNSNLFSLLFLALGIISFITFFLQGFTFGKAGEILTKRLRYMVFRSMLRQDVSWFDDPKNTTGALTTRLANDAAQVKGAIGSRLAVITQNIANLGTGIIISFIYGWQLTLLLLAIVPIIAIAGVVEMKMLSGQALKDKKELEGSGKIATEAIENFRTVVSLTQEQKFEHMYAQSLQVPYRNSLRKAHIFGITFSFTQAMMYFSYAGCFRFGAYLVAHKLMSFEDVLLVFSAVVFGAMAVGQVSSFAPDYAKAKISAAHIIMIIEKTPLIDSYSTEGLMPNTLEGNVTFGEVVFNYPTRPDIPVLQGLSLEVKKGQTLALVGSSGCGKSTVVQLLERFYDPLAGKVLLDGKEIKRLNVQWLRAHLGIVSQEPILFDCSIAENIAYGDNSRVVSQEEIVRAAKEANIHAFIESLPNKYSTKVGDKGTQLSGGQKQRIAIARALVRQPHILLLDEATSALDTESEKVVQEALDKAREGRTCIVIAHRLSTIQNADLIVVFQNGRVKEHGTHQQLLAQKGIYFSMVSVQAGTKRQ
T1 sequence (Q92887 whole entry): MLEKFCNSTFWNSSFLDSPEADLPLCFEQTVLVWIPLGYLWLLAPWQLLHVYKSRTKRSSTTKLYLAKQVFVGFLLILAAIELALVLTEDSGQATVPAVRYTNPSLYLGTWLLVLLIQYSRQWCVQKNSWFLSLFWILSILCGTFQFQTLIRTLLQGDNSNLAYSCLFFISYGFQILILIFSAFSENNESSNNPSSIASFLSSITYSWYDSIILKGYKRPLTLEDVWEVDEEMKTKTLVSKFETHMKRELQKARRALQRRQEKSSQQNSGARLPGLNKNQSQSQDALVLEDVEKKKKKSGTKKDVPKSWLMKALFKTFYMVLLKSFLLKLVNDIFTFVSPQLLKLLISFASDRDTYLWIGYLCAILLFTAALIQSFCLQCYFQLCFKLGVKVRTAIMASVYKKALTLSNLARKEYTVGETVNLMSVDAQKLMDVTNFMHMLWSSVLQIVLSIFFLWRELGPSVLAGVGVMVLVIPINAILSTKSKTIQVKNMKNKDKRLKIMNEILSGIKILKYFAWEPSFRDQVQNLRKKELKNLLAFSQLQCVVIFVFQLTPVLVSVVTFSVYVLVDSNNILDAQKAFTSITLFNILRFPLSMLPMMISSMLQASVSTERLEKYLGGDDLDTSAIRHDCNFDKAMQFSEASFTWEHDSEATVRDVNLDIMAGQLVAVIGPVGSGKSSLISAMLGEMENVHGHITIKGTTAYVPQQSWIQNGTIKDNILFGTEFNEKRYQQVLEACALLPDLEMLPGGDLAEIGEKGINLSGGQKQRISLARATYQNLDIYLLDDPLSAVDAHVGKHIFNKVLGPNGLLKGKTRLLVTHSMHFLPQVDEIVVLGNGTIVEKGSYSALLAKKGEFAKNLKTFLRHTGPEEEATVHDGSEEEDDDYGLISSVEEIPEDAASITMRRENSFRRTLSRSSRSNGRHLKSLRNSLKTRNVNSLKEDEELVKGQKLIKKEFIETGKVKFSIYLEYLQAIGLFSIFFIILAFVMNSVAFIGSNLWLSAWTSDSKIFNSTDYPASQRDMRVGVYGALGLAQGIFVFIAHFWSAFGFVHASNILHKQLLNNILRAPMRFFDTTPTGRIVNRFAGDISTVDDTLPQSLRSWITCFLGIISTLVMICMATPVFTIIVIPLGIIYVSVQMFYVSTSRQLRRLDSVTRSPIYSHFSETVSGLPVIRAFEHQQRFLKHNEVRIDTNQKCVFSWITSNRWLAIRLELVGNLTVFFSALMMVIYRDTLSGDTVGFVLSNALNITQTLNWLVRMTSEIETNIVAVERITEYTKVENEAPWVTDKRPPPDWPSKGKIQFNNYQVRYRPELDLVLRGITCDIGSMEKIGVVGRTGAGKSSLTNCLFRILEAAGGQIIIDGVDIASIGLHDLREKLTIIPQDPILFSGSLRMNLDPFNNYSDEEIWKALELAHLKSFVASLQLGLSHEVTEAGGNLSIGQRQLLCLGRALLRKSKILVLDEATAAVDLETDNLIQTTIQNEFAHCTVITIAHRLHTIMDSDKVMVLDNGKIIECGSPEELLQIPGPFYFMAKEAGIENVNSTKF

The IC50 is the point on the concentration scale where inhibition reaches its midpoint. Take `COc1cc(S(=O)(=O)[O-])c(C)cc1N=Nc1c(O)ccc2cc(S(=O)(=O)[O-])ccc12.[Na+].[Na+]` [allura red AC]: the IC50 at MRP2 [1] is 20 µM; on OATP2B1 [2] (setting [10]) it was 1.6 µM; on OATP2B1 [2] (setting [11]) it was 0.8 µM. Besides, the Ki on OATP2B1 [2] was 2.59 µM. Moreover, in the data set with OATP2B1 [3], the “effect on fexofenadine plasma levels (OATP2B1 inhibition)” value was “decreases fexofenadine plasma levels”. The “effect on sulfasalazine permeability (P app)” value (from here on “effect … (P app)”) with Caco-2 cells was “None of the selected food additives showed any effect”.

Regarding `O=S(=O)([O-])c1ccc(N=Nc2cc(S(=O)(=O)[O-])c3ccccc3c2O)c2ccccc12.[Na+].[Na+]` [carmoisine], the IC50 at BCRP [4] is 5.38 µM; on MRP2 [1] it was 29 µM; on OATP2B1 [2] (setting [10]), 2.9 µM; at OATP2B1 [2] (setting [11]), 9.7 µM. Further, the “effect … (P app)” value with Caco-2 cells is given as “None of the selected food additives showed any effect”. The “sulfasalazine P app fold change” value in the data set on Caco-2 cells (food additive 200 μM on both sides of the cell monolayer) is reported as ≤ 2.

For the molecule `CCN(Cc1cccc(S(=O)(=O)[O-])c1)c1ccc(C(=C2C=CC(=[N+](CC)Cc3cccc(S(=O)(=O)[O-])c3)C=C2)c2ccccc2S(=O)(=O)[O-])cc1.[Na+].[Na+]` [brilliant blue FCF], the figures for the IC50 on BCRP [4], at MRP2 [1] and on OATP2B1 [2] (setting [10]) were 1.97 µM, 3.22 µM and 18.4 µM, respectively. Besides, the Ki at OATP2B1 [2] is 13 µM. Also, the “effect … (P app)” value in the data set on Caco-2 cells was “None of the selected food additives showed any effect”.

In general, inhibition refers to the relative decrease from the control value, in per cent. For the molecule `Cc1cc(C(C)(C)C)c(O)c(C(C)(C)C)c1` [butylated hydroxytoluene], the P-gp inhibition result on P-gp [5] was “did not inhibit”. In addition, the “inhibition of P-gp substrate accumulation” value against P-gp [6] is “None”. On BCRP [4] (ref Kulkarni et al.), the BCRP inhibition result is given as “did not inhibit”. Further, the OATP2B1 inhibition entry on OATP2B1 [2] (ref Kulkarni et al.) is given as “did not inhibit; also recorded: OATP2B1-stimulating effect”. Moreover, the IC50 on MRP2 [7] (CDCF 5 μM, membrane vesicles, n = 3, read-out: IC50 (95% CI), MRP2) was found to be 49 µM. Further, the inhibition at 50 μM at MRP2 [7] (Sf9-derived crude membrane vesicles expressing MRP2, pH 7, probe CDCF 5 μM, food additive 50 μM, n = 1, read-out: inhibition of MRP2 substrate accumulation) is ≥ 50%. Besides, on OATP2B1 [8] (5-carboxyfluorescein 2 μM, HEK293 cells, n = 1), the “inhibition of OATP2B1-mediated uptake” value is “OATP2B1-stimulating effect”.

The term Papp A→B denotes how fast a substance crosses the layer from the apical side. Read a high Papp A→B as fast passage. One may read the Papp B→A as how fast a substance crosses the layer from the basolateral side. By efflux ratio is commonly meant the permeability from basolateral to apical divided by that in the opposite direction, in the common usage. As for `O=C(O)c1cc(/N=N/c2ccc(S(=O)(=O)Nc3ccccn3)cc2)ccc1O` [sulfasalazine, reference compound], in the data set “in vitro”, the Papp A→B at 120 min, 500 μM was ≤ 0.1 ×10⁻⁶ cm/s; the apparent permeability from basolateral to apical (Papp B→A) at 120 min, 500 μM was ~6.5 ×10⁻⁶ cm/s; the efflux ratio at 120 min, 500 μM was > 70.

`CCCCCCCCOC(=O)c1cc(O)c(O)c(O)c1` [octyl gallate]: the “inhibition of P-gp substrate accumulation” value against P-gp [6] is reported as “did not inhibit”. Also, the IC50 at BCRP [4] is 10 µM; at MRP2 [1] it was 19.2 µM. The inhibition at 50 μM is ≥ 50% at BCRP [9] and ≥ 50% on OATP2B1 [8] (human, HEK293 cells transduced with recombinant OATP2B1 baculovirus, pH 6, probe 5-carboxyfluorescein 2 μM, n = 1, read-out: inhibition of OATP2B1-mediated uptake). Moreover, the “inhibition of MRP2 substrate accumulation” value at MRP2 [7] (food additive 50 μM, CDCF 5 μM, n = 1) is on record as “did not inhibit”.

The values above are taken from PMC12406256, “Food Additives Inhibit Intestinal Drug Transporters but Have Limited Effect on In Vitro Drug Permeability” (Molecular Pharmaceutics, 2025).
